Results taken from the supplement of paper PMC10949913.

What was measured:
CU-ACC2 = test: area under concentration-response curve (viability) (AUC (a.u.)); higher = less active; settings: 48 h
Method in brief: (§1)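 Cells from three adrenocortical carcinoma lines were seeded at 500–1,000 cells/well in 5 µL medium in 1,536-well plates. Each library compound was added as 23 nL at 11 concentrations, and after 48 h CellTiter-Glo was added for 15 minutes at room temperature before reading luminescence. Plate-wise normalisation to vehicle and empty-well controls preceded curve fitting. AC50 and area under the curve were calculated only for inhibitory or non-responding curve classes.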

NCI-H295R = test: as above; settings: 48 h
Method in brief: as §1

SMILES: C[C@@H](NC1=CC=CC=C1C(O)=O)C/2=C/C(=C\N3C(=O)/C=C(\N=C23)N4CCOCC4)C
- area under concentration-response curve (CU-ACC2): 535
- area under concentration-response curve (NCI-H295R): 543

SMILES: NC\1=N\C(=O)N(\C=C1)[C@@H]2O[C@H](CO)[C@@H](O)[C@@H]2O
- area under concentration-response curve (CU-ACC2): 551
- area under concentration-response curve (NCI-H295R): 504

SMILES: O=NN(CCCl)C(=O)NC1CCCCC1
- area under concentration-response curve (CU-ACC2): 503
- area under concentration-response curve (NCI-H295R): 538

SMILES: CC1CC2=CC=CC=C2N1C(=O)C\C3=N\C(=O)\C=C(/N3)N4CCOCC4 (configuration not stated)
- area under concentration-response curve (CU-ACC2): 579
- area under concentration-response curve (NCI-H295R): 548

SMILES: O=C(COCC(=O)N1CCN(C(c2ccccc2)c2ccccc2)CC1)Nc1ccc(Cl)cc1C(=O)O
- area under concentration-response curve (CU-ACC2): 529
- area under concentration-response curve (NCI-H295R): 538

SMILES: Cc1cc(N2CCOCC2)ccc1Nc1nc(NC2CCCCC2)c2nc[nH]c2n1
- area under concentration-response curve (CU-ACC2): 587
- area under concentration-response curve (NCI-H295R): 539

SMILES: CNC(=O)c1ccc2cc(C3(O)CCn4cncc43)ccc2c1 (configuration not stated)
- area under concentration-response curve (CU-ACC2): 599
- area under concentration-response curve (NCI-H295R): 556

SMILES: O=C(c1ccc(F)cc1)N1CCC[C@H](c2nc(-c3ccc(F)cc3)no2)C1
- area under concentration-response curve (CU-ACC2): 624
- area under concentration-response curve (NCI-H295R): 576

SMILES: COc1ccc(C(=O)CC(=O)c2ccc(C(C)(C)C)cc2)cc1
- area under concentration-response curve (CU-ACC2): 595
- area under concentration-response curve (NCI-H295R): 543

SMILES: CCC(=O)Nc1cccc(Oc2nc(Nc3ccc(N4CCN(C)CC4)cc3OC)ncc2Cl)c1
- area under concentration-response curve (CU-ACC2): 523
- area under concentration-response curve (NCI-H295R): 465

SMILES: Cc1c(-c2c(-c3ccc(F)o3)sc3ncnc(O[C@@H](Cc4ccccc4OCc4ccnn4CC(F)(F)F)C(=O)O)c23)ccc(OCCN2CCN(C)CC2)c1Cl
- area under concentration-response curve (CU-ACC2): 600
- area under concentration-response curve (NCI-H295R): 529

SMILES: CC(=O)Oc1ccccc1C(=O)Nc1ncc([N+](=O)[O-])s1
- area under concentration-response curve (CU-ACC2): 634
- area under concentration-response curve (NCI-H295R): 590

SMILES: O=C(O)CCNc1cc(N2CCc3ccccc3CC2)nc(-c2ccccn2)n1
- area under concentration-response curve (CU-ACC2): 486
- area under concentration-response curve (NCI-H295R): 490

SMILES: C[C@@H](O)[C@@H]1NC(=O)[C@H](CCCCN)NC(=O)[C@@H](Cc2c[nH]c3ccccc23)NC(=O)[C@H](Cc2ccccc2)NC(=O)[C@@H](NC(=O)[C@H](N)Cc2ccccc2)CSSC[C@@H](C(=O)N[C@H](CO)[C@@H](C)O)NC1=O
- area under concentration-response curve (CU-ACC2): 648
- area under concentration-response curve (NCI-H295R): 612

SMILES: Cc1cc(-c2cc(OC(=O)c3ccccc3)ccc2Cl)cc2nnc(Nc3ccc(OCCN4CCCC4)cc3)nc12
- area under concentration-response curve (CU-ACC2): 664
- area under concentration-response curve (NCI-H295R): 612

SMILES: CN1C(=O)COc2c(C(=O)NC3CN4CCC3CC4)cc(Cl)cc21 (configuration not stated)
- area under concentration-response curve (CU-ACC2): 550
- area under concentration-response curve (NCI-H295R): 533

SMILES: C#Cc1cccc(Nc2ncnc3cc(OCCOC)c(OCCOC)cc23)c1
- area under concentration-response curve (CU-ACC2): 623
- area under concentration-response curve (NCI-H295R): 550

SMILES: CC[S+]([O-])(=O)N1CCC(CC1)C(C)[N]2C(=C(C(=O)NC\C3=C(OC)\C=C(\C)NC3=O)C4=C2C=CC=C4)C (configuration not stated)
- area under concentration-response curve (CU-ACC2): 562
- area under concentration-response curve (NCI-H295R): 511

SMILES: Nc1nc(NCCNc2ncc(-n3ccnc3)c(-c3ccc(Cl)cc3Cl)n2)ccc1[N+](=O)[O-]
- area under concentration-response curve (CU-ACC2): 485
- area under concentration-response curve (NCI-H295R): 536

SMILES: CC/1=N/C2=CC=CC(=C2C(=O)N1C3CCC(=O)NC3=O)N (configuration not stated)
- area under concentration-response curve (CU-ACC2): 635
- area under concentration-response curve (NCI-H295R): 575

SMILES: C/C(NNC(=O)c1cccc([S+](=O)([O-])N2CCOCC2)c1)=C1\C=C(Cl)C=CC1=O
- area under concentration-response curve (CU-ACC2): 585
- area under concentration-response curve (NCI-H295R): 545

SMILES: O=C(NC[C@H]1CN(c2ccc(N3CCOCC3=O)cc2)C(=O)O1)c1ccc(Cl)s1
- area under concentration-response curve (CU-ACC2): 605
- area under concentration-response curve (NCI-H295R): 557

SMILES: NC(=O)c1ccc(N(C(N)=O)c2c(F)cccc2F)nc1-c1ccc(F)cc1F
- area under concentration-response curve (CU-ACC2): 440
- area under concentration-response curve (NCI-H295R): 471

SMILES: COc1cc2ncnc(Nc3cccc(Cl)c3F)c2cc1OC(=O)N1CCN(C)C[C@H]1C
- area under concentration-response curve (CU-ACC2): 610
- area under concentration-response curve (NCI-H295R): 531

SMILES: C[C@]12CCC3c4ccc(O)cc4CCC3C1CCC2=O (some centres not stated)
- area under concentration-response curve (CU-ACC2): 565
- area under concentration-response curve (NCI-H295R): 508

SMILES: CC/1=C/2C[C@H]3C(=C)CCC[C@]3(C)/C=C2OC1=O
- area under concentration-response curve (CU-ACC2): 593
- area under concentration-response curve (NCI-H295R): 524

SMILES: O=C(NC[C@H](O)CN1CCc2ccccc2C1)c1cc(NC2COC2)ncn1
- area under concentration-response curve (CU-ACC2): 367
- area under concentration-response curve (NCI-H295R): 429

SMILES: CN(C(Cc1ccc(OS(=O)(=O)c2cccc3cnccc23)cc1)C(=O)N1CCN(c2ccccc2)CC1)S(=O)(=O)c1cccc2cnccc12 (configuration not stated)
- area under concentration-response curve (CU-ACC2): 627
- area under concentration-response curve (NCI-H295R): 576

SMILES: Cn1c(-c2ccccc2C(F)(F)F)nnc1C12CCC(c3noc(C4CC(F)(F)C4)n3)(CC1)CC2
- area under concentration-response curve (CU-ACC2): 594
- area under concentration-response curve (NCI-H295R): 546

SMILES: C[C@]12CCC\3=C\4CCC(=O)\C=C4CC[C@H]3[C@@H]1CC[C@@]2(O)CC#N
- area under concentration-response curve (CU-ACC2): 649
- area under concentration-response curve (NCI-H295R): 606

SMILES: CN1C(=O)\C(=C/C2=C1N=C(NC3CCOCC3)N=C2)OC4=C(F)C=C(F)C=C4
- area under concentration-response curve (CU-ACC2): 611
- area under concentration-response curve (NCI-H295R): 565

SMILES: Nc1cccc([S+](=O)([O-])N2CCCN([S+](=O)([O-])c3ccc4c(c3)OCCO4)CC2)c1
- area under concentration-response curve (CU-ACC2): 634
- area under concentration-response curve (NCI-H295R): 546

SMILES: NC(=O)c1cccnc1
- area under concentration-response curve (CU-ACC2): 608
- area under concentration-response curve (NCI-H295R): 569

SMILES: O=C1c2c(O)cc(O)cc2O[C@H](c2ccc(O)c(O)c2)[C@H]1O
- area under concentration-response curve (CU-ACC2): 583
- area under concentration-response curve (NCI-H295R): 539

SMILES: CC[C@]12CC[C@H]3[C@@H](CCC/4=C/C(=O)CC[C@H]34)[C@@H]1\C=C/[C@@]2(O)C#C
- area under concentration-response curve (CU-ACC2): 623
- area under concentration-response curve (NCI-H295R): 602

SMILES: CC[C@H](NC1=C2N=C[NH]C2=NC=N1)C/3=N/C4=C(C(=CC=C4)F)C(=O)N3C5=CC=CC=C5
- area under concentration-response curve (CU-ACC2): 582
- area under concentration-response curve (NCI-H295R): 536

SMILES: NC(=O)C/1=C(O)/[C@]2(O)[C@@H](C[C@@H]\3CC4=C(C(=CC=C4)O)\C(=C3C2=O)O)CC1=O
- area under concentration-response curve (CU-ACC2): 640
- area under concentration-response curve (NCI-H295R): 586

SMILES: CC1=C(C=CC=C1)N2/N=C(\C=C/C2=O)C3=C4NC[C@@H](CO)C[N]4N=C3C5=CC=C(F)C=C5
- area under concentration-response curve (CU-ACC2): 422
- area under concentration-response curve (NCI-H295R): 435

SMILES: NC/1=N/C2=C(N=C[N]2[C@H]3C[C@H](O)[C@@H](CO)C3=C)C(=O)N1
- area under concentration-response curve (CU-ACC2): 589
- area under concentration-response curve (NCI-H295R): 521

SMILES: CCC(c1ccc(O)cc1)C(CC)c1ccc(O)cc1 (configuration not stated)
- area under concentration-response curve (CU-ACC2): 656
- area under concentration-response curve (NCI-H295R): 607

SMILES: Cc1cnc(-c2ccccc2C(C)C)nc1NCc1ccc(-n2ccnn2)cc1
- area under concentration-response curve (CU-ACC2): 614
- area under concentration-response curve (NCI-H295R): 563

SMILES: Cc1cc(NC(=O)Nc2ccc(N(C)C)cc2)c2cc(F)cc(F)c2n1
- area under concentration-response curve (CU-ACC2): 667
- area under concentration-response curve (NCI-H295R): 613

SMILES: C[C@@H]1Cc2c([nH]c3ccccc23)[C@@H](c2c(F)cc(/C=C/C(=O)O)cc2F)N1CC(C)(C)F
- area under concentration-response curve (CU-ACC2): 615
- area under concentration-response curve (NCI-H295R): 593

SMILES: NCCOc1cc(C(=O)Nc2cc(OCCN)c3ccccc3n2)nc(C(=O)Nc2cc(OCCN)c3ccccc3n2)c1
- area under concentration-response curve (CU-ACC2): 454
- area under concentration-response curve (NCI-H295R): 507

SMILES: Nc1nc(N)c2nc(-c3cccc(Cl)c3)c(N)nc2n1
- area under concentration-response curve (CU-ACC2): 596
- area under concentration-response curve (NCI-H295R): 520

SMILES: CCC1(c2ccccc2)C(=O)NCNC1=O
- area under concentration-response curve (CU-ACC2): 566
- area under concentration-response curve (NCI-H295R): 521

SMILES: Cc1cc(O)c2c(c1)C(=O)c1cccc(O)c1C2=O
- area under concentration-response curve (CU-ACC2): 604
- area under concentration-response curve (NCI-H295R): 552

SMILES: CC(NC(C)(C)C)C(=O)c1cccc(Cl)c1 (configuration not stated)
- area under concentration-response curve (CU-ACC2): 526
- area under concentration-response curve (NCI-H295R): 509

SMILES: CCc1ccc2nc(Nc3cc(Cc4ccccc4)nc(N[C@H]4CC[C@H](O)CC4)n3)sc2c1
- area under concentration-response curve (CU-ACC2): 620
- area under concentration-response curve (NCI-H295R): 580

SMILES: O=C(NC[C@H](O)CN1CCc2ccccc2C1)c1ccnc(NC2CCC2)c1
- area under concentration-response curve (CU-ACC2): 535
- area under concentration-response curve (NCI-H295R): 539

SMILES: NC[C@H](O)c1ccc(O)c(O)c1
- area under concentration-response curve (CU-ACC2): 636
- area under concentration-response curve (NCI-H295R): 599
